# Experimental data from US10766914B2, “DNA alkylating agents” (OBI PHARMA, INC., priority 2015, dated 2020).
# Like-named read-outs stand apart in the source and are kept apart here.
# Legend:
# H460 cells = assay: Proliferation assay in H460 cells (2 hr exposure, AlamarBlue); format: cell-based, human; settings: wash, 70 hrs growth, read-out: IC 50 in proliferation assay in H460 cells
# Method: In vitro proliferation data on the H460 […] human tumor cell line is reported above in the compound table.
# Specifically, exponentially growing cells were seeded at a density of 4×10^3 cells per well in a 96 well plate and incubated at 37° C. in 5% CO2, 95% air and 100% relative humidity for 24 hours prior to addition of test compounds. Compounds were solubilized in 100% DMSO at 200 times the desired final test concentration. At the time of drug addition, compounds were further diluted to 4 times the desired final concentration with complete medium. Aliquots of 50 μl of compound at specified concentrations were added to microtiter wells already containing 150 μl of medium, resulting in the final drug concentration reported. After drug addition, the plates were incubated for an additional 2 hours at 37° C., 5% CO2, 95% air, and 100% relative humidity, then the drug was washed off and fresh medium was added and the plates were incubated for addition 70 hrs at 37° C., 5% CO2, 95% air and 100% relative humidity. At the end of this incubation, the viable cells were quantified using the AlamarBlue assay. The drug concentration resulting in growth inhibition of 50% (IC50) was calculated using Prism software (Irvine, Calif.), and the results were listed in the table.
# [1] = Example 4-D body weight change and lethal toxicity, A549 xenograft study; format: in vivo, female nude mice (nu/nu)
# Method: (§1) Cells were mixed with Matrigel (50% with exception for 30% in the H460) and 0.2 ml per mouse were subcutaneously implanted to the flank area of the animals. When tumor size reached 100-150 250 mm3, mice were randomized into experimental or vehicle groups with 10 mice/group and treatment was started (Day 1). The tested compounds were formulated in 5% DMSO in D5W. The regimens employed in the examples include IP, QD×5/wk (5 days on, 2 days off) as one cycle, for a total of 2 cycles; IP, once; IP, weekly for total 3 weeks; and IV, weekly for 3 weeks. Tumor growth and body weight were measured twice a week. Tumor volume was calculated as (length×width2)/2. Drug efficacy was assessed as Tumor Growth Inhibition (TGI) and Tumor Growth Delay (TGD). TGI was defined as (1−ΔT/ΔC)×100, where ΔT/ΔC presented the ratio of the change in mean (or median, if variation within the group was relatively large) tumor volume of the treated group and of the control group. TGD was calculated as the extra days for the treated tumor to reach 500 mm3 or 1000 mm3 as compared to the control group. Animals were culled when individual tumor size reached over 2000 mm3 or mean tumor volume exceeded 1000 mm3 in the group. Data are expressed as the mean±SEM. One-way analysis of variance with Dunnett post comparison test (GraphPad Prism 4) or two-tailed student's t-test were used for analysis. A P level <0.05 was considered statistically significant.
# (§2) The compounds were tested in another A549 model. The compounds were dosed as follows. Daily IP dosing: 5 doses then 2 days off then 5 more doses starting at 100 mm^3 tumors on day 1 (10 animals per group average tumor volume). The antitumor effects and the safety of administration are graphically illustrated below.
# A549 NSCLC xenograft = assay: Example 4-D antitumor efficacy, ectopic A549 NSCLC xenograft model; format: in vivo, female nude mice (nu/nu)
# Excerpt: (§3) Specific pathogen-free homozygous female nude mice (nu/nu, Charles River Laboratories) were used. Mice were given food and water ad libitum and housed in microisolator cages. Four to six week old animals were identified by microchips (Locus Technology, Manchester, Md., USA) at the time of the experiments. All animal studies were approved by the Institutional Animal Care and Use Committee at Threshold Pharmaceuticals, Inc.
# (§4) All cell lines were from the American Type Culture Collection (ATCC, Rockville, Md., USA).
# as §1, §2
# [2] = Pharmacokinetics in CD-1 mice following a single intraperitoneal dose (parent and TH2660); settings: mouse, in vivo, ip, parent compound
# Method: The pharmacokinetics of TH2873, TH2883, TH2888, TH2890, TH2901 and TH2926 were determined in CD-1 mice following a single intraperitoneal dose.
# The pharmacokinetics of TH2660, the active metabolite, following a single intraperitoneal dose of TH2873, TH2883, TH2888, TH2890, TH2901 and TH2926 are shown below.
# [3] = system: A375 melanoma human tumor xenograft; assay: Example 4-C antitumor efficacy, ectopic A375 melanoma xenograft model; format: in vivo, female nude mice (nu/nu); settings: qd × 5 × 2, ip
# Excerpt: as §3, §4, §1
# his study employed an A375 melanoma human tumor xenograft model and various compounds provided herein were compared to thiotepa and the approved anti melanoma drug, nab-Paclitaxel.
# [4] = Example 4-C body weight change, A375 xenograft study; format: in vivo, female nude mice (nu/nu); settings: qd × 5 × 2, ip
# Method: as §1
# his study employed an A375 melanoma human tumor xenograft model and various compounds provided herein were compared to thiotepa and the approved anti melanoma drug, nab-Paclitaxel. The antitumor effects and the safety of administration are graphically illustrated below.
# AKR1C3 = target: T1, AKR1C3 (Homo sapiens, UniProt P42330); assay: Activation by the aldoketo reductase AKR1C3 (% remaining, LC/MS/MS); format: biochemical; settings: for % Remaining: 5 μM, 25 μg/mL AKR1C3, 2 mM NADPH, 37° C.
# T1 sequence (P42330 1-323): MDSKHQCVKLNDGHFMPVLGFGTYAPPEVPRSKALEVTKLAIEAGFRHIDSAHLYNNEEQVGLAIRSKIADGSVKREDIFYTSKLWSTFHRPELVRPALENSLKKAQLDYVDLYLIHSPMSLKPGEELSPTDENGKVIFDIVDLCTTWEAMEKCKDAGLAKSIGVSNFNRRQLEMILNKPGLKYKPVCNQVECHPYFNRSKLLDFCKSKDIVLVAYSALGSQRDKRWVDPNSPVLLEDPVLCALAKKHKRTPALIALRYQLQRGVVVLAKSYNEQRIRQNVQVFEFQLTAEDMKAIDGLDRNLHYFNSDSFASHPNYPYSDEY
# Method: Recombinant human AKR1C3 was diluted to 25 μg/mL in phosphate buffered saline (PBS), pH 7.4 (37° C.), containing 2 mM NADPH. TH2870 or progesterone (positive control) in 30% methanol/70% water was added to the reaction mixture at a final concentration of 5 μM and incubated at 37° C. for 120 minutes. At various times up to 120 min, 50 μL of the reaction mixture was taken and 200 μL acetonitrile containing propranolol as internal standard was added, vortex-mixed and centrifuged for 10 min. The resulting supernatant (5 μL) was injected into a LC/MS/MS for quantitation of % remaining TH2870 and progesterone. The compounds were tested in duplicate.
# [5] = Homo sapiens, NCI-H460, 2 hrs exposure
# [6] = 10 mg/kg IP QD × 5/wk × 2 wks, 10 animals per group
structure (smiles),measurement,setting,value
Cc1nc2ccc(Oc3cc(COP(=O)(N4CC4)N4CC4)ccc3[N+](=O)[O-])cc2s1 [Compound 2931],IC50,H460 cells; [5],1 nM
same,Max. BW loss %,[1]; 5 mg/kg IP QD × 5,25.0%
same,Lethal Tox,"[1]; 5 mg/kg IP QD × 5, 10 animals per group",10
CC(OP(=O)(N1CC1)N1CC1)c1ccc([N+](=O)[O-])c(Oc2ccc3ccccc3c2)c1 (stereo not shown) [Compound 2955],IC50,H460 cells; [5],6 nM
same,TGD 500,A549 NSCLC xenograft; 40 mg/kg IP QD × 5/wk × 2 wks,47 days
same,TGI,A549 NSCLC xenograft; 40 mg/kg IP QD × 5/wk × 2 wks,78.9%
same,Max. BW loss %,[1]; 40 mg/kg IP QD × 5/wk × 2 wks,0.6%
same,Lethal Tox,"[1]; 40 mg/kg IP QD × 5/wk × 2 wks, 10 animals per group",1
CC(OP(=O)(N1CC1)N1CC1)c1ccc([N+](=O)[O-])c(Oc2ccc(S(C)(=O)=O)cc2)c1 (stereo not shown) [Compound 2883],IC50,H460 cells; [5],30 nM
same,TGD 500,A549 NSCLC xenograft; 10 mg/kg IP QD × 5/wk × 2 wks,>85 days
same,TGI,A549 NSCLC xenograft; 10 mg/kg IP QD × 5/wk × 2 wks,93.5%
same,Max. BW loss %,[1]; 10 mg/kg IP QD × 5/wk × 2 wks,15.8%
same,Lethal Tox,[1]; [6],5
same,AUC,[2],9080 ng·h/mL
same,Cmax,[2],7570 ng/mL
same,Tmax,[2],15 min
same,half-life,[2],23.4 min
O=[N+]([O-])c1ccc(COP(=O)(N2CC2)N2CC2)cc1Oc1ccc2c(c1)OCO2 [Compound 2888],IC50,H460 cells; [5],3 nM
same,TGD 500,[3]; 10 mpk,6 days
same,TGD 1000,[3]; 10 mpk,6 days
same,inhibition in vivo at 10 mg/kg,"[3]; Mus musculus, A-375, 10 mpk, read-out: TGI",37.3%
same,Max. BW loss %,[4]; 10 mpk,4.8%
same,AUC,[2],1600 ng·h/mL
same,Cmax,[2],5810 ng/mL
same,Tmax,[2],5 min
same,half-life,[2],10.9 min
COc1ccc(Oc2cc(C(C)OP(=O)(N3CC3)N3CC3)ccc2[N+](=O)[O-])cc1 (stereo not shown) [Compound 2873],IC50,H460 cells; [5],5 nM
same,TGD 500,[3]; 40 mpk,12 days
same,TGD 1000,[3]; 40 mpk,11 days
same,inhibition in vivo at 40 mg/kg,"[3]; Mus musculus, A-375, 40 mpk, read-out: TGI",65%
same,Max. BW loss %,[4]; 40 mpk,0%
same,AUC,[2],2100 ng·h/mL
same,Cmax,[2],8430 ng/mL
same,Tmax,[2],5 min
same,half-life,[2],8.81 min
"CC(=O)[C@H]1CC[C@H]2[C@@H]3CCC4=CC(=O)CC[C@]4(C)[C@H]3CC[C@]12C [Progesterone, progesterone, reference compound]",% Remaining,AKR1C3; 0 min,100%
same,% Remaining,AKR1C3; 15 min,70.8%
same,% Remaining,AKR1C3; 30 min,49.2%
same,% Remaining,AKR1C3; 60 min,20.1%
same,% Remaining,AKR1C3; 90 min,10.6%
same,% Remaining,AKR1C3; 120 min,6.40%
same,disappearance in the presence of AKR1C3,AKR1C3; in words,reduced slowly
O=[N+]([O-])c1ccc(COP(=O)(N2CC2)N2CC2)cc1Oc1ccc2ncsc2c1 [Compound 2901],IC50,H460 cells; [5],3 nM
same,AUC,[2],2580 ng·h/mL
same,Cmax,[2],5120 ng/mL
same,Tmax,[2],5 min
same,half-life,[2],12.1 min
O=[N+]([O-])c1ccc(COP(=O)(N2CC2)N2CC2)cc1Oc1ccc(-c2ccccc2)cc1 [Compound 2958],IC50,H460 cells; [5],2 nM
same,TGD 500,A549 NSCLC xenograft; 5 mg/kg IP QD × 5/wk × 2 wks,44 days
same,TGI,A549 NSCLC xenograft; 5 mg/kg IP QD × 5/wk × 2 wks,77.9%
same,Max. BW loss %,[1]; 5 mg/kg IP QD × 5/wk × 2 wks,2.1%
same,Lethal Tox,"[1]; 5 mg/kg IP QD × 5/wk × 2 wks, 10 animals per group",0
CC(OP(=O)(N1CC1)N1CC1)c1ccc([N+](=O)[O-])c(Oc2ccc(NS(=O)(=O)CCl)cc2)c1 (stereo not shown) [Compound 2926],IC50,H460 cells; [5],20 nM
same,AUC,[2],9650 ng·h/mL
same,Cmax,[2],8340 ng/mL
same,Tmax,[2],15 min
same,half-life,[2],34.2 min
CS(=O)(=O)c1ccc(Oc2cc(COP(=O)(N3CC3)N3CC3)ccc2[N+](=O)[O-])cc1 [Compound 2911],IC50,H460 cells; [5],8 nM
same,TGD 500,A549 NSCLC xenograft; 10 mg/kg IP QD × 5/wk × 2 wks,63 days
same,TGI,A549 NSCLC xenograft; 10 mg/kg IP QD × 5/wk × 2 wks,88.7%
same,Max. BW loss %,[1]; 10 mg/kg IP QD × 5/wk × 2 wks,11.1%
same,Lethal Tox,[1]; [6],0
CC(OP(=O)(N1CC1)N1CC1)c1ccc([N+](=O)[O-])c(Oc2ccc3ncccc3c2)c1 (stereo not shown) [Compound 2952],IC50,H460 cells; [5],3 nM
same,TGD 500,A549 NSCLC xenograft; 20 mg/kg IP QD × 5/wk × 2 wks,70 days
same,TGI,A549 NSCLC xenograft; 20 mg/kg IP QD × 5/wk × 2 wks,91.8%
same,Max. BW loss %,[1]; 20 mg/kg IP QD × 5/wk × 2 wks,1.2%
same,Lethal Tox,"[1]; 20 mg/kg IP QD × 5/wk × 2 wks, 10 animals per group",1
O=[N+]([O-])c1ccc(COP(=O)(N2CC2)N2CC2)cc1Oc1ccccc1-c1ccccc1 [Compound 3029],IC50,H460 cells; [5],600 nM
CC(OP(=O)(N1CC1)N1CC1)c1ccc([N+](=O)[O-])c(Oc2cccc([N+](=O)[O-])c2)c1 (stereo not shown) [Compound 2942],IC50,H460 cells; 2 hrs exposure,20 nM
CC(OP(=O)(N1CC1)N1CC1)c1ccc([N+](=O)[O-])c(Oc2c(F)cccc2F)c1 (stereo not shown) [Compound 2932],IC50,H460 cells; [5],20 nM
